Test results from paper PMC10824152 (Journal of medicinal chemistry, 2023).

Assays:
[1] = biological target: rat nNOS (Rattus norvegicus, UniProt P29476)
[2] = biological target: human nNOS (Homo sapiens, UniProt P29475); settings: ratio of Ki values versus 17

SMILES | Loss in potency as compared to 17, rat nNOS [1] [fold] | Lower potency than 17, human nNOS [2] [fold]
COc1cc(N)nc(CCc2cc(CCN(C)C)cc(F)c2F)c1.Cl.Cl [Compound 18, 6-(5-(2-(Dimethylamino)ethyl)-2,3-difluorophenethyl)-4-methoxypyridin-2-amine dihydrochloride] | 5 | –
Cc1cc(CCc2cc(CCN(C)C)cc(F)c2F)nc(N)n1.Cl.Cl [Compound 19, 4-(5-(2-(Dimethylamino)ethyl)-2,3-difluorophenethyl)-6-methylpyrimidin-2-amine dihydrochloride] | 438 | –
CN(C)CCc1cc(F)c(F)c(CCc2cc(C(F)F)cc(N)n2)c1.Cl.Cl [Compound 23, 4-(Difluoromethyl)-6-(5-(2-(dimethylamino)ethyl)-2,3-difluorophenethyl)pyridin-2-amine dihydrochloride] | – | 14
